This is an account of results in US8436024B2, “2-pyridone compounds” (Astrazeneca AB, priority 2009, dated 2013).

Data set [1] is described as follows: Humidity interaction (hygroscopicity determination) by Gravimetrical Vapour Sorption. It is filed as physicochemical. The settings on record: for hygroscopicity: relative change in weight between 0% RH and 80% RH, second cycle, benzenesulfonate. As to the method:
Run time was 6.2 minutes; post time was 2.3 min; and detection was at 235 nm. • (v) In general, the course of reactions was followed by TLC and reaction times are given for illustration only. • (vi) Yields are given for illustration only and are not necessarily those which can be obtained by diligent process development; preparations were repeated if more material was required. • (vii) Chemical symbols have their usual meanings; SI units and symbols are used. • (viii) Solvent ratios are given in volume: volume (v/v) terms. • (ix) Mass spectra (MS) (loop) were recorded on a Micromass Platform LC equipped with HP 1100 detector; unless otherwise stated the mass ion quoted is (MH^+). • (x) X-ray Powder Diffraction patterns were collected on a PANalytical X′Pert PRO MPD theta-theta system, equipped with a focusing beam Johansson monochromator and an X′Celerator detector, using CuKα1 radiation (1.5406 Å, 45 kV, 40 mA). The diffraction pattern was collected between 2 and 40 °2θ in a continuous scan mode. The scan speed was 0.86°/min. with an increment of 0.016°. Samples were mounted on single silicon crystal wafer mounts. • (xi) Humidity Interaction (hygroscopicity determination): The gravimetric responses of test samples to changes in humidity were investigated using a TGA 5000 (TA Instruments) Gravimetrical Vapour Sorption (GVS). The relative humidity (RH) was raised in steps of 10% to 90% RH and lowered back to 0% RH in two cycles. Each level of RH was held until the equilibrium condition (sample weight change<0.005 wt % per 10 minutes) was reached. 3-5 mg of the test sample was placed in the cup and evaluated. The hygroscopicity was calculated as the relative change in weight of the sample between 0% RH at the start of the second cycle and 80% RH during the increase of humidity in the second cycle. […]

The target in data set [2] is T1, Human Neutrophil Elastase (HNE) (Homo sapiens, UniProt P08246).
T1 sequence (P08246 30-267): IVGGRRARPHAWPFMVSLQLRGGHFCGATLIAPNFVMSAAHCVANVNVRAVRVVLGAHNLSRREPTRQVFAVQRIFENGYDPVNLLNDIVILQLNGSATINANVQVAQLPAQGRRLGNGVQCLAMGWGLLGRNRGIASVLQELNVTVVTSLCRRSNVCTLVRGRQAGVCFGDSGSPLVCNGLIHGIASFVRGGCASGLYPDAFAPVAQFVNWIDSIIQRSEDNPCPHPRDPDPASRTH
Nature of the data set: Human Neutrophil Elastase Quenched-FRET Assay. In kind it is biochemical. The settings on record: geomean of measured IC50 values; HNE 0.17 nM, substrate MeOSuc-AAPV-AMC 100 μM, 90 min at room temperature; read-out: Inhibition of Human Neutrophil Elastase IC50. The method, then:
Human Neutrophil Elastase Quenched-FRET Assay The assay uses Human Neutrophil Elastase (HNE) purified from serum (Calbiochem art. 324681; Ref Baugh, R. J. et al., 1976, Biochemistry. 15, 836-841). HNE was stored in 50 mM sodium acetate (NaOAc), 500 mM sodium chloride (NaCl), pH 5.5 with added 50% glycerol at −20° C. The protease substrate used was Elastase Substrate V Fluorogenic, MeOSuc-AAPV-AMC (Calbiochem art. 324740; Ref Castillo, M. J. et al., 1979, Anal. Biochem. 99, 53-64). The substrate was stored in dimethyl sulphoxide (DMSO) at −20° C. The assay additions were as follows: Test compounds and controls were added to black 384-well flat-bottom plates (Greiner 781076), 0.2 μL in 100% DMSO, followed by 10 μL HNE in assay buffer with 0.01% Triton (trade mark) X-100 detergent. The assay buffer constitution was: 100 mM Tris(hydroxymethyl)aminomethane (TRIS) (pH 7.5) and 500 mM NaCl. The enzyme and the compounds were incubated at room temperature for 15 minutes. Then 10 μL substrate in assay buffer was added. The assay was incubated for 90 minutes at room temperature. The concentrations of HNE enzyme and substrate during the incubation were 0.17 nM and 100 μM, respectively. The assay was then stopped by adding 20 μl stop solution (140 mM acetic acid, 200 mM sodium monochloroacetate, 60 mM sodium acetate, pH 4.3). Fluorescence was measured on a Wallac EnVision 2102 Multilabel Reader instrument at settings: Excitation 380 nm, Emission 460 nm. IC50 values were determined using Xlfit curve fitting using model 203. […] Specimen results are shown in the following Table in which the IC50 value represents the geomean of the IC50 values measured for a particular compound and “n” refers to the number of times the compound was tested: […]

For `Cc1c(-c2ccnn2-c2ccc(C#N)cc2)cc(C(=O)NCCC[N+](C)(C)C)c(=O)n1-c1cccc(C(F)(F)F)c1.O=S(=O)([O-])c1ccccc1` [Example 10, 3-(5-(1-(4-cyanophenyl)-1H-pyrazol-5-yl)-6-methyl-2-oxo-1-(3-(trifluoromethyl)phenyl)-1,2-dihydropyridine-3-carboxamido)-N,N,N-trimethylpropan-1-aminium benzenesulfonate], in data set [1] (description of the crystalline modification), the “hygroscopicity (in words)” value is reported as “low hygroscopicity”. In data set [1] (listed as Form B), the hygroscopicity is listed as 0.4 % (w/w).

For the molecule `Cc1c(-c2ccnn2-c2ccc(C#N)cc2)cc(C(=O)NCCC[N+](C)(C)C)c(=O)n1-c1cccc(C(F)(F)F)c1` [Example 9a, 3-(5-(1-(4-cyanophenyl)-1H-pyrazol-5-yl)-6-methyl-2-oxo-1-(3-(trifluoromethyl)phenyl)-1,2-dihydropyridine-3-carboxamido)-N,N,N-trimethylpropan-1-aminium benzenesulfonate], the IC50 (usually the concentration that inhibits the measured activity by half) in data set [2] stood at 1.1 nM.

With `Cc1c(-c2ccnn2-c2ccc(C#N)cc2)cc(C(=O)NCCC[N+](C)(C)C)c(=O)n1-c1cccc(C(F)(F)F)c1.O=S(=O)([O-])c1ccccc1` [Example 9, 3-(5-(1-(4-cyanophenyl)-1H-pyrazol-5-yl)-6-methyl-2-oxo-1-(3-(trifluoromethyl)phenyl)-1,2-dihydropyridine-3-carboxamido)-N,N,N-trimethylpropan-1-aminium benzenesulfonate], the hygroscopicity in data set [1] (listed as Form A) is 0.8 % (w/w).

Regarding `Cc1c(-c2ccnn2-c2ccc(C#N)cc2)cc(C(=O)NCCC[N+](C)(C)C)c(=O)n1-c1cccc(C(F)(F)F)c1` [Example 7, 3-(5-(1-(4-cyanophenyl)-1H-pyrazol-5-yl)-6-methyl-2-oxo-1-(3-(trifluoromethyl)phenyl)-1,2-dihydropyridine-3-carboxamido)-N,N,N-trimethylpropan-1-aminium bromide], the IC50 in data set [2] was found to be 0.57 nM.

With `Cc1c(-c2ccnn2-c2ccc(C#N)cc2)nc(C(=O)NCCC[N+](C)(C)C)c(=O)n1-c1cccc(C(F)(F)F)c1` [Example 6, 3-[({6-[1-(4-cyanophenyl)-1H-pyrazol-5-yl]-5-methyl-3-oxo-4-[3-(trifluoromethyl)phenyl]-3,4-dihydropyrazin-2-yl}carbonyl)amino]-N,N,N-trimethylpropan-1-aminium iodide], the IC50 in data set [2] was determined as 3.48 nM.

Take `Cc1c(-c2ccnn2-c2ccc(C#N)cc2)cc(C(=O)NCC[N+]2(C)CCCC2)c(=O)n1-c1cccc(C(F)(F)F)c1` [Example 1, 1-{2-[({5-[1-(4-cyanophenyl)-1H-pyrazol-5-yl]-6-methyl-2-oxo-1-[3-(trifluoromethyl)phenyl]-1,2-dihydropyridin-3-yl}carbonyl)amino]ethyl}-1-methylpyrrolidinium acetate]: the IC50 in data set [2] came to 0.949 nM.

Take `Cc1c(-c2ccnn2-c2ccc(C#N)cc2)cc(C(=O)NCCCC[N+]2(C)CCCC2)c(=O)n1-c1cccc(C(F)(F)F)c1` [Example 2, 1-{-4-[({5-[1-(4-cyanophenyl)-1H-pyrazol-5-yl]-6-methyl-2-oxo-1-[3-(trifluoromethyl)phenyl]-1,2-dihydropyridin-3-yl}carbonyl)amino]butyl}-1-methylpyrrolidinium acetate]: the IC50 in data set [2] was 0.771 nM.

Consider `Cc1c(-c2ccnn2-c2ccc(C#N)cc2)cc(C(=O)NCCC[N+]2(C)CCCC2)c(=O)n1-c1cccc(C(F)(F)F)c1` [Example 5, 1-{3-[({5-[1-(4-cyanophenyl)-1H-pyrazol-5-yl]-6-methyl-2-oxo-1-[3-(trifluoromethyl)phenyl]-1,2-dihydropyridin-3-yl}carbonyl)amino]propyl}-1-methylpyrrolidinium iodide], for which the IC50 in data set [2] is 0.971 nM.

Turning to `Cc1c(-c2ccnn2-c2ccc(C#N)cc2)cc(C(=O)NCC[N+](C)(C)C)c(=O)n1-c1cccc(C(F)(F)F)c1` [Example 3, 2-[({5-[1-(4-cyanophenyl)-1H-pyrazol-5-yl]-6-methyl-2-oxo-1-[3-(trifluoromethyl)phenyl]-1,2-dihydropyridin-3-yl}carbonyl)amino]-N,N,N-trimethylethanaminium acetate], the IC50 in data set [2] stood at 1.05 nM.

Turning to `Cc1c(-c2ccnn2-c2ccc(C#N)cc2)cc(C(=O)NCCCC[N+](C)(C)C)c(=O)n1-c1cccc(C(F)(F)F)c1` [Example 4, 4-[({5-[1-(4-cyanophenyl)-1H-pyrazol-5-yl]-6-methyl-2-oxo-1-[3-(trifluoromethyl)phenyl]-1,2-dihydropyridin-3-yl}carbonyl)amino]-N,N,N-trimethylbutan-1-aminium iodide], in data set [2], the IC50 worked out at 0.934 nM.
